# Where “and” joins values, the source holds several entries; their conditions need not be identical. Equal values may be shown once.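 The concentration for 50% growth inhibition is given as GI50. Definition used: TGI = concentration required for complete inhibition of growth.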
# Legend:
# Experiment in all cases: NCI anticancer screen, dose series, 384-well format
# A549 NSCLC = tested on: A549 NSCLC
# OVCAR-5 ovarian = tested on: OVCAR-5 ovarian
# OVCAR-4 ovarian = tested on: OVCAR-4 ovarian
# SK-OV-3 ovarian = tested on: SK-OV-3 ovarian
# A498 renal = tested on: A498 renal
# SF-539 CNS = tested on: SF-539 CNS
# HOP-92 NSCLC = tested on: HOP-92 NSCLC
# M14 melanoma = tested on: M14 melanoma
# OVCAR-8 ovarian = tested on: OVCAR-8 ovarian
# SNB-19 CNS = tested on: SNB-19 CNS
# SK-MEL-28 melanoma = tested on: SK-MEL-28 melanoma
# NCI-H23 lung = tested on: NCI-H23 lung
# SN12C renal = tested on: SN12C renal
# PC-3 prostate = tested on: PC-3 prostate
# UO-31 renal = tested on: UO-31 renal
# MDA-MB-435 melanoma = tested on: MDA-MB-435 melanoma
# 786-0 renal = tested on: 786-0 renal
# EKVX NSCLC = tested on: EKVX NSCLC
# NCI-H522 lung = tested on: NCI-H522 lung
# SNB-75 CNS = tested on: SNB-75 CNS
# HOP-62 NSCLC = tested on: HOP-62 NSCLC
# BT-549 breast = tested on: BT-549 breast
# HCT-116 colon = tested on: HCT-116 colon
# HCT-15 colon = tested on: HCT-15 colon
# HT29 colon = tested on: HT29 colon
# SF-268 CNS = tested on: SF-268 CNS
smiles,measurement,setting,value
COc1ccc(C2=N[C@@H](c3ccc(Cl)cc3)[C@@H](c3ccc(Cl)cc3)N2C(=O)N2CCNC(=O)C2)c(OC(C)C)c1,TGI,A549 NSCLC,27.8 µM and 14.7 µM and 13.8 µM
same,GI50,OVCAR-5 ovarian,16.9 µM and 17.6 µM and 16.7 µM
same,TGI,OVCAR-5 ovarian,30.6 µM and 31.8 µM and 30.5 µM
same,GI50,OVCAR-4 ovarian,14 µM and 14.2 µM and 13.8 µM
same,TGI,OVCAR-4 ovarian,27 µM and 27.4 µM and 26.8 µM
same,GI50,SK-OV-3 ovarian,19.7 µM and 16 µM and 12.9 µM
same,TGI,SK-OV-3 ovarian,34 µM and 29.6 µM and 25.7 µM
same,TGI,A498 renal,23.1 µM and 13.1 µM and 13.5 µM
same,GI50,SF-539 CNS,16.1 µM and 13.7 µM and 10.6 µM
same,TGI,SF-539 CNS,29.6 µM and 26.8 µM and 22.4 µM
same,GI50,HOP-92 NSCLC,15.2 µM and 13.4 µM and 11.8 µM
same,TGI,HOP-92 NSCLC,28.5 µM and 26.3 µM and 24.1 µM
same,GI50,M14 melanoma,13.1 µM and 10 µM and 11.1 µM
same,TGI,M14 melanoma,25.8 µM and 21.6 µM and 23.1 µM
same,GI50,OVCAR-8 ovarian,15.6 µM and 11.9 µM and 10.5 µM
same,TGI,OVCAR-8 ovarian,29.1 µM and 24.4 µM and 22.3 µM
same,GI50,SNB-19 CNS,14.3 µM and 14.6 µM
same,TGI,SNB-19 CNS,27.4 µM and 27.9 µM
same,GI50,SK-MEL-28 melanoma,15.6 µM and 18.7 µM and 18 µM
same,TGI,SK-MEL-28 melanoma,29 µM and 32.9 µM and 32 µM
same,GI50,NCI-H23 lung,14.5 µM and 15.1 µM
same,TGI,NCI-H23 lung,27.6 µM and 28.5 µM
same,GI50,SN12C renal,15.5 µM and 17.2 µM and 16.1 µM
same,TGI,SN12C renal,28.9 µM and 31 µM and 29.6 µM
same,GI50,PC-3 prostate,12.5 µM and 13 µM and 12.6 µM
same,TGI,PC-3 prostate,25.1 µM and 25.8 µM and 25.2 µM
same,GI50,UO-31 renal,11.2 µM and 4.63 µM and 5.1 µM
same,TGI,UO-31 renal,23.3 µM and 15.8 µM and 16 µM
same,GI50,MDA-MB-435 melanoma,13.8 µM and 16.4 µM and 15.8 µM
same,TGI,MDA-MB-435 melanoma,26.8 µM and 30.1 µM and 29.4 µM
same,GI50,786-0 renal,14.7 µM and 14 µM and 11.2 µM
same,TGI,786-0 renal,27.9 µM and 27.1 µM and 23.3 µM
same,GI50,EKVX NSCLC,15 µM and 15.3 µM and 14.6 µM
same,TGI,EKVX NSCLC,28.3 µM and 28.7 µM and 27.8 µM
same,GI50,NCI-H522 lung,14.1 µM and 15 µM and 14.8 µM
same,TGI,NCI-H522 lung,27.1 µM and 28.3 µM and 28 µM
same,GI50,SNB-75 CNS,13.3 µM and 11.9 µM and 11.6 µM
same,TGI,SNB-75 CNS,26.1 µM and 24.2 µM and 23.9 µM
same,GI50,HOP-62 NSCLC,15.6 µM and 2.36 µM and 5.46 µM
same,TGI,HOP-62 NSCLC,29.1 µM and 19.6 µM and 20.5 µM
same,GI50,BT-549 breast,16.6 µM and 16.9 µM
same,TGI,BT-549 breast,30.3 µM and 30.2 µM and 30.6 µM
same,TGI,HCT-116 colon,24 µM and 14.5 µM and 12.8 µM
same,GI50,HCT-15 colon,16 µM and 16.1 µM and 14 µM
same,TGI,HCT-15 colon,29.7 µM and 30.1 µM and 27.1 µM
same,GI50,HT29 colon,11.8 µM and 13.4 µM and 10.5 µM
same,TGI,HT29 colon,24.2 µM and 26.3 µM and 22.3 µM
same,GI50,SF-268 CNS,16.7 µM and 13.4 µM and 10.7 µM
same,TGI,SF-268 CNS,30.4 µM and 26.4 µM and 22.6 µM
